Assay results taken from US20170275287A1, “NOVEL N2, N4, N7, 6-TETRASUBSTITUTED PTERIDINE-2,4,7-TRIAMINE AND 2, 4, 6, 7-TETRASUBSTITUTED PTERIDINE COMPOUNDS AND METHODS OF SYNTHESIS AND USE THEREOF” (Janus Biotherapeutics, Inc., priority 2014, published 2017).

Assays:
hepatocyte = experiment: Hepatocyte viability assay (CEREP); assay type: cell-based
Experimental: See, Tables 4b and Scheme 18. The hepatocyte cell viability assays were performed by CEREP, Seattle, Wash., according to Mosmann, T., 1983, J. Immunol. Met. 65:55-62.

hERG = molecular target: T1, hERG (Homo sapiens, UniProt Q12809); experiment: hERG patch clamp assay (automated, CHO-hERG cells); assay type: cell-based
T1 construct: host or cells: CHO (Chinese hamster ovary)
T1 sequence (Q12809 whole entry): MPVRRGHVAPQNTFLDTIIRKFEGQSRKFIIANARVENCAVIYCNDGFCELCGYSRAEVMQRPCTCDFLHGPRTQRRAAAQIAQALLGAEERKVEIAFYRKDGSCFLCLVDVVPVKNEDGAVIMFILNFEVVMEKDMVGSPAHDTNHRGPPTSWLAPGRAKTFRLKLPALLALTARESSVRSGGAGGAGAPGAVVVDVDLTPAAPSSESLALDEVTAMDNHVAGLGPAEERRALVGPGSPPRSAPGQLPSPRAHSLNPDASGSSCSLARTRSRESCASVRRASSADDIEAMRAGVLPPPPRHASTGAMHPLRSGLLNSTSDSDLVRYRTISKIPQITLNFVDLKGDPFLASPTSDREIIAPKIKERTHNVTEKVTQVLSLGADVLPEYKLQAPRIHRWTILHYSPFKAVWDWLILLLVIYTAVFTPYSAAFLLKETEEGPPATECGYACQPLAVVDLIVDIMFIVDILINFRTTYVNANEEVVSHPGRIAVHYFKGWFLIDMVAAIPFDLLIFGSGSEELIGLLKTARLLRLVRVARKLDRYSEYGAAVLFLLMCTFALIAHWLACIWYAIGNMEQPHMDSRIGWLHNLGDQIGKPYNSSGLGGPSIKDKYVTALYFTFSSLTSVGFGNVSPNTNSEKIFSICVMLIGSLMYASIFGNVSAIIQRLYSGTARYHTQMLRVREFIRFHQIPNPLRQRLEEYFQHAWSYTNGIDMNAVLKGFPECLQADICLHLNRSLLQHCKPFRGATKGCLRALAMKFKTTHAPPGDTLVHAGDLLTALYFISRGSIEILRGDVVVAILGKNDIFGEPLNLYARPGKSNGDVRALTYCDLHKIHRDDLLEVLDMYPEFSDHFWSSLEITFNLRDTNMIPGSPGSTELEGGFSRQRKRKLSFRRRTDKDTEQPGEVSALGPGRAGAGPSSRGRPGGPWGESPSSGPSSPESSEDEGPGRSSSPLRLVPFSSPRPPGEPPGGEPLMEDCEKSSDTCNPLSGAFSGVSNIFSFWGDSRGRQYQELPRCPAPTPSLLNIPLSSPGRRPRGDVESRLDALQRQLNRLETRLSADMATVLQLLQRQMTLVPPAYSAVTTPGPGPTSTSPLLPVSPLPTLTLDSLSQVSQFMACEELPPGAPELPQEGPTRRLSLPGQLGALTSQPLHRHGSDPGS
Experimental: The hERG inhibition assay uses a high throughput single cell planar patch clamp approach. Chinese hamster ovary cells transfected with the hERG gene (CHO-hERG) are dispensed into the PatchPlate. Amphotericin is used as a perforating agent to gain electrical access to the cells. The hERG tail current is measured prior to the addition of the test compound by perforated patch clamping. Following addition of the test compound at a defined concentration or range of concentrations a second recording of the hERG current is performed. The degree of inhibition (%) is obtained by measuring the tail current amplitude, which is induced by a one second test pulse to −40 mV after a two second pulse to +20 mV, before and after drug incubation (the difference current is normalized to control and multiplied by 100 to obtain the percent of inhibition).
Concentration (log) response curves were fitted to a logistic equation (three parameters assuming complete block of the current at very high test compound concentrations) to generate estimates of the 50% inhibitory concentration (IC50). The concentration-response relationship of each compound is constructed from the percentage reductions of current The data is usually categorized into the following classification bands:
The hERG assay was conducted by Cyprotec Inc. in its Watertown, Mass. laboratories. The concentration range tested was 0.0096-30 μM. No concentration-dependent inhibition was observed, IC50>30 μM.
The hERG inhibition assay uses a high throughput single cell planar patch clamp approach. Chinese hamster ovary cells transfected with the hERG gene (CHO-hERG) are dispensed into the PatchPlate. Amphotericin is used as a perforating agent to gain electrical access to the cells. The hERG tail current is measured prior to the addition of the test compound by perforated patch clamping. Following addition of the test compound, n=4 cells per concentration, final DMSO concentration=0.25%), a second recording of the hERG current is performed.
Post-compound hERG currents are expressed as a percentage of pre-compound hERG currents (% control current) and plotted against concentration for each compound. Where concentration dependent inhibition is observed the Hill equation is used to fit a sigmoidal line to the data and an IC50 (concentration at which 50% inhibition is observed) is determined. The assays were performed according to Haverkamp, W. et al., 2000, Eur Heart J., 21:1216-1231, Kiss, L. et al., 2003, Assay Drug Dev. Technol., 1:127-135 and Schroeder, K. et al., 2003, J. Biomol Screen, 8:50-64.

Q: How did the “% Hepatocyte viability 24 h at 50 μM” value (hepatocyte) turn out when C[C@@H]1CN(CCNc2nc3nc(N4CCN(C)CC4)nc(NCCN4C[C@@H](C)O[C@@H](C)C4)c3nc2Cl)C[C@H](C)O1 [JB6143] was run?
A: 74%

Q: What about the IC50 (hERG; Table 4b) of the same compound?
A: > 30 µM

Q: For COCCN1CCN(c2nc(NCCN3CCOCC3)c3nc(Cl)c(NCCN4CCOCC4)nc3n2)CC1 [JB6160], which “% Hepatocyte viability 24 h at 50 μM” value (hepatocyte) is on record?
A: 47%

Q: What about the IC50 (hERG; Table 4b) of the same compound?
A: > 30 µM

Q: With CCOc1nc2c(NCCN3CCCC3)nc(-c3ccccc3)nc2nc1N1CCN(C)CC1 [JB6131] as the compound, how does the “% Hepatocyte viability 24 h at 100 μM” value (hepatocyte) read?
A: 11%

Q: And the IC50 (hERG; Table 4b)?
A: < 10 µM

Q: What about the IC50 (hERG; hERG patch clamp assay, FIG. 1) of the same compound?
A: 8.1 µM

Q: What does the source list for CCOc1nc2c(NCCN3CCOCC3)nc(NCc3ccccc3)nc2nc1NCCN1CCOCC1 [JB6180]?
A: % Hepatocyte viability 24 h at 50 μM (hepatocyte): 13%; IC50 (hERG; Table 4b): 0.3 µM

Q: For CN1CCN(c2nc(NCCN3CCOCC3)c3nc(Cl)c(NCCN4CCOCC4)nc3n2)CC1 [JB6121, 6-chloro-2-(4-methylpiperazin-1-yl)-N^4,N^7-bis(2-morpholinoethyl)pteridine-4,7-diamine], which “% Hepatocyte viability 24 h at 100 μM” value (hepatocyte) is on record?
A: 92%

Q: What about the IC50 (hERG; Cyprotec, concentration range tested 0.0096-30 μM) of the same compound?
A: > 30 µM

Q: What about the IC50 (hERG; Table 4b) of the same compound?
A: > 30 µM

Q: What about the hERG inhibition (hERG; up to 30 μM) of the same compound?
A: no measurable hERG inhibition

Q: With CN1CCN(c2nc3nc(-c4ccccc4)nc(NCCN4CCOCC4)c3nc2OCCN2CCOCC2)CC1 [JB6116] as the compound, how does the “% Hepatocyte viability 24 h at 100 μM” value (hepatocyte) read?
A: 69%

Q: And the IC50 (hERG; hERG patch clamp assay, FIG. 1)?
A: 13.1 µM

Q: What about the IC50 (hERG; human, CHO cells transfected with hERG (CHO-hERG), Table 4b) of the same compound?
A: < 30 µM

Q: How did the “% Hepatocyte viability 24 h at 50 μM” value (hepatocyte) turn out when CCCCNc1nc(NCCN2CCOCC2)c2nc(Cl)c(NCCN3CCOCC3)nc2n1 [JB6140] was run?
A: 59%

Q: And the IC50 (hERG; Table 4b)?
A: < 1 µM

Q: How did the “% Hepatocyte viability 24 h at 100 μM” value (hepatocyte) turn out when CN1CCN(c2nc(NCCN3CCOCC3)c3ncc(-c4ccccc4)nc3n2)CC1 [JB6059] was run?
A: 69%

Q: And the IC50 (hERG; Table 4b)?
A: 5 µM

Q: And the IC50 (hERG; hERG patch clamp assay, FIG. 1)?
A: 6.2 µM

Q: With Clc1nc2c(NCCN3CCOCC3)nc(NCc3ccccc3)nc2nc1NCCN1CCOCC1 [JB6172] as the compound, how does the “% Hepatocyte viability 24 h at 50 μM” value (hepatocyte) read?
A: 51%

Q: And the IC50 (hERG; Table 4b)?
A: 1 µM

Q: How did the “% Hepatocyte viability 24 h at 50 μM” value (hepatocyte) turn out when CCCCNc1nc(NCCN2CCOCC2)c2nc(SCC)c(NCCN3CCOCC3)nc2n1 [JB6185] was run?
A: 0%

Q: What about the IC50 (hERG; Table 4b) of the same compound?
A: < 0.3 µM
